Assay results published in paper PMC10064330, “Reversible Dual-Covalent Molecular Locking of the 14-3-3/ERRγ Protein–Protein Interaction as a Molecular Glue Drug Discovery Approach” (Journal of the American Chemical Society, 2023).

Each molecule was assayed against T1, 14-3-3γ/PKR complex (Homo sapiens, UniProt P61981) (assay: FA / TD-FA selectivity screen, PKR client peptide). Conditions: 100 μM compound.
T1 construct: made in house; host or cells: E. coli NiCo21 (DE3)
T1 sequence (P61981 1-247): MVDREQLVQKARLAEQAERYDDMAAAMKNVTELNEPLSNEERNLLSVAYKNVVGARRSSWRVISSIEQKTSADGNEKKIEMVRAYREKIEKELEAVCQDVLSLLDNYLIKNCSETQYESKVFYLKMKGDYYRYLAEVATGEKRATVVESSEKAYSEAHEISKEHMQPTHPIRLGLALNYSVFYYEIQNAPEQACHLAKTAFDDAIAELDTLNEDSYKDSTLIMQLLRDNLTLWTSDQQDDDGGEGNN
Assay type: binding
Experimental: Drugging the hub protein 14-3-3 raises the challenge of selectivity, given that 14-3-3 binds several hundred phosphoprotein partners (Figure 4a).[54] We hypothesized that the interplay of chemical reactivity, the topology, and functionality of the composite binding pocket shaped by 14-3-3 and the interaction partner drives selective stabilization of the 14-3-3/ERRγ complex.[53] To validate selectivity, molecular locks 5 and 10 were tested against a panel of nine 14-3-3 client peptides in an FA assay, and the SF100 was determined for each 14-3-3 PPI (Figure 4b and Figures S18–S20). This client panel contained a diverse representation of 14-3-3 binding proteins, differing for example in size and hydrophobicity of the +1 amino acid. Importantly, clients PKR and RND3, each containing a +1 Cys, were included in the panel.
To further assess off-target reactivity to +1 Cys-containing peptides, fragment 1, locks 5 and 10 were also screened against PKR and RND3 in the TD-FA assay.
Figure S20. KD and SF100 plot – selectivity screen. […]
nine different client peptides in presence of DMSO (negative control) or 100 µM of compound 1, 5 or 10 (based on binding curves in Figure S19). Also a bar plot representation of stabilization factor (SF100) of compounds 1, 5 and 10 for each of these peptides (bottom plot).
(1 picture or pasted object on this page, not shown here)
Experimental Section Biophysical Assays
14-3-3γ protein expression (FA, TSA, MS assays)
A pPROEX HTb expression vector encoding the human 14-3-3 protein gamma (14-3-3γ) with a N-terminal his6-tag was transformed by heat shock into NiCo21 (DE3) competent cells. Single colonies were cultured in 50 mL LB medium (100 µg/mL ampicillin). After overnight incubation at 37 °C, cultures were transferred to 2 L TB media (100 µg/mL ampicillin, 1 mM MgCl2) and incubated at 37 °C until an OD600 nm of 0.8 -1.2 was reached. […] Finally, the protein was concentrated to ∼60 mg/mL, analyzed Q-Tof LC/MS, and aliquots were flash-frozen for storage at −80 °C. […]

Row | SMILES | stabilization of the PKR complex
1 | CN(C)CCSSCCN(C)C(=O)c1ccc(C=O)c(F)c1 [compound 5] | no stabilization
2 | CN(C)CCSSCCN(C)C(=O)c1cccc(F)c1 [compound 1, reference compound] | no stabilization
3 | CN(C)CCSSCCN(C)C(=O)c1cc(Br)cc(C=O)c1 [compound 10] | no stabilization
